Paper PMC7766124, “Improved Cell Selectivity of Pseudin-2 via Substitution in the Leucine-Zipper Motif: In Vitro and In Vivo Antifungal Activity” (Antibiotics, 2020)
Like-named read-outs stand apart in the source and are kept apart here. No end group written: not given here.

Legend:
C. tropicalis cells [1] = assay: SYTOX Green uptake (membrane permeability); assay type: cell-based; details: SP buffer pH 7.2, 0.5 μM SYTOX Green, peptides 1-64 µM, monitored 30 min
Protocol: C. tropicalis cells pre-grown at 28 °C were washed and suspended (2 × 10^6 cells/mL) in SP buffer (pH 7.2). The cells were pre-incubated with SYTOX Green (final concentration of 0.5 μM) for 15 min in the dark, followed by adding two-fold serial dilutions of peptides at concentrations of 1 to 64 µM. The fluorescence intensity was monitored for 30 min at 485 (Ex) and 520 (Em) nm using a microtiter SpectraMax M5 reader (Molecular Devices, San Jose, CA, USA).

mouse erythrocytes = assay: Hemolytic assay; assay type: cell-based; details: 64 µM peptide, 8% (v/v) mRBCs, 37 °C, 2 h (method) / 4 h (figure legend)
Protocol: Mouse blood was collected into sodium heparin-coated tubes (BD Vacutainer; BD Diagnostics, Oxford, UK). The mRBCs were obtained by centrifugation (800× g, 10 min) and washing with PBS. The washed mRBCs were added to a final concentration of 8% (v/v) in 64 µM peptide solution, followed by incubation for 2 h at 37 °C. After centrifugation, each tube was digitally recorded.

C. albicans = assay type: cell-based, C. albicans (KCTC 7270); details: 36 h
Source text: (§1) Aspergillus flavus (KCTC 6905), A. fumigatus (KCTC 6145), Fusarium moniliforme (KCTC 6149), F. oxysporum (KCTC 16909), C. albicans (KCTC 7270), C. krusei (CCARM 14017), C. parapsilosis (CCARM 14016), C. tropicalis (KCTC 7221), and T. beigelii (KCTC 7707) were obtained from the Korea Collection for Type Cultures (KCTC) and Culture Collection of Antimicrobial Resistant Microbes (CCARM). Mold and yeast fungi were pre-grown on potato dextrose (PD) and yeast extract peptone dextrose (YPD) agars, respectively.
(§2) Antifungal activity of peptides was performed by microtiter plate assays. Fungal conidia from four-day-old molds were collected using 0.08% Triton X-100 (v/v), and pre-cultivated yeast cells were adjusted to 2 × 10^4 spores/mL in 10 mM sodium phosphate buffer (SP, pH 7.2) or 10 mM 2-(N-morpholino)ethanesulfonic acid (MES) buffer (pH 5.5) supplemented with 20% culture medium, followed by addition to peptide solutions (0.25, 0.5, 1, 1.5, 2, 4, 6, 8, 12, 16, 32, 48, and 64 µM) in 96-well microtiter plates. After incubation for 36 h at 28 °C, the hyphal growth of conidia and the proliferation of yeast cells were observed under a light microscope. All assays were performed in triplicate. The MIC values were defined as the lowest concentration of samples that reduced fungal germination (for mold) or cell proliferation (for yeast) by more than 90% [34].

A. fumigatus = assay type: cell-based, A. fumigatus (KCTC 6145); details: 36 h
Source text: as §1, §2

T. beigelii = assay type: cell-based, T. beigelii (KCTC 7707); details: 36 h
Source text: as §1, §2

F. oxysporum = assay type: cell-based, F. oxysporum (KCTC 16909); details: 36 h
Source text: as §1, §2

C. tropicalis cells [2] = assay: Mitochondrial superoxide, MitoSOX Red flow cytometry; assay type: cell-based; details: peptide at MIC for 8 h
Protocol: Mitochondrial SOX was measured using MitoSOX Red probe. C. tropicalis cells (2 × 10^4 spores/mL) were treated with samples at the appropriate MIC for 8 h and then stained with MitoSOX Red according to the manufacturer’s instructions. The stained cells were acquired by flow cytometry (Attune NxT Acoustic Focusing Cytometer; ThermoFisher Scientific Co., Eugene, OR, USA) at 561 nm by 10,000 total events.

HaCaT cells = assay: Cytotoxicity, XTT cell viability assay; assay type: cell-based, human; details: peptides 4-256 µM, 24 h incubation, triplicate
Protocol: Cell viability was assessed using sodium XTT assays. HaCaT (human immortalized keratinocytes) cells were cultured in Dulbecco’s modified Eagle medium (DMEM; ThermoFisher Scientific, Gibco, Waltman, MA, USA) supplemented with antibiotic-antimycotic (ThermoFisher Scientific, Gibco) and 10% fetal bovine serum (FBS; ThermoFisher Scientific, Gibco) at 37 °C in a humidified chamber containing 5% CO2. The cells were seeded at 5 × 10^4 cells/mL in flat-bottom 96-well microtiter plates in triplicate. Twenty-four hours later, cells were treated with two-fold serial dilutions of peptides (ranging from 256 to 4 µM) in medium, and the cells were further incubated for 24 h. Next, activated-XTT solution was added to each well and the plates were additionally incubated for 4 h. Absorbance in each well was measured at wavelengths of 480 and 650 nm using a microtiter SpectraMax M5 reader (Molecular Devices, Sunnyvale, CA, USA). Triton X-100 (0.1% v/v) and DMEM were used as controls for survival.

C. tropicalis = assay type: cell-based, C. tropicalis (KCTC 7221); details: 36 h
Source text: as §1, §2

F. moniliforme = assay type: cell-based, Fusarium moniliforme (KCTC 6149); details: 36 h
Source text: as §1, §2

[3] = Calcein leakage from mammalian-mimic artificial vesicles; details: mammalian-mimic PC/CH/SM vesicles, 20 μM lipid; peptide/lipid molar ratio 0.1; 100% = 0.03% Triton X-100
Protocol: The permeability of peptides in calcein-entrapped artificial liposomes was assayed by measuring calcein leakage. The desired mixtures of lipids (PC/PE/PI/ergosterol, 5:4:1:2 and PC/CH/SM, 2:1:1, weight ratio) were dissolved in chloroform at 10 mg/mL, dried in a glass tube under nitrogen, and then lyophilized overnight to remove residual solvent. The dried lipid films were resuspended in 1 mL of dye solution (80 mM calcein, 10 mM HEPES buffer, pH 7.2) at 50 °C and vortexed, followed by freeze-thawing for nine cycles and extrusion with polycarbonate filters (0.2-μm pore-size) using an Avanti Mini-Extruder (Avanti Polar Lipids Inc., Alabaster, AL, USA). Free calcein was removed using PD-10 desalting columns (GE Healthcare Life Science, Seoul, Korea). Calcein-entrapped vesicles of 20 μM lipids were incubated with peptides at concentrations of […], 0.02, 0.05, and 0.1 molar ratio (peptide/lipid) and the fluorescence was assessed at 480 (Ex) and 520 (Em) nm using a microtiter SpectraMax M5 reader (Molecular Devices). Complete (100%) release was achieved by the addition of 0.03% Triton X-100 (v/v).

For “GLNALKKVFQGIHEAIKLINNHVQ-NH2 [Pseudin-2]”, the “SYTOX Green fluorescence intensity” value (C. tropicalis cells [1]) was “gradual, concentration-dependent increases in fluorescence intensity”, the “hemolytic effects (hemoglobin release, by visualization)” value (mouse erythrocytes) was “did not release hemoglobin” and the MIC (C. albicans; pH 5.5) was 32 µM. It also gave an MIC (C. albicans; pH 7.2) of 12 µM, an MIC (A. fumigatus; pH 5.5) of 24 µM and an MIC (A. fumigatus; pH 7.2) of 64 µM. For the same substance, the MIC (T. beigelii; pH 5.5) was 2 (2) µM, the MIC (T. beigelii; pH 7.2) was 2 (2) µM and the MIC (F. oxysporum; pH 5.5) was 16 µM. For the same substance, the MIC (F. oxysporum; pH 7.2) was 4 µM, the “MitoSOX Red fluorescence (mitochondrial SOX)” value (C. tropicalis cells [2]) was “a little right shift” and the “cytotoxic effects against HaCaT cells” value (HaCaT cells) was “significant, concentration-dependent cytotoxic effects”. It also gave an MIC (C. tropicalis; pH 5.5) of 2 µM, an MIC (C. tropicalis; pH 7.2) of 4 µM and an MIC (F. moniliforme; pH 5.5) of 64 µM. For the same substance, the MIC (F. moniliforme; pH 7.2) was 32 µM and the calcein efflux [3] was “significant dye leakage”.
